According to BindingDB's records for doi:10.1021/jm050559f (Wyeth Research, 2005):

What was measured:
[1] = biological target: T1, Vascular endothelial growth factor receptor 2 (Homo sapiens, UniProt P35968); experiment: Inhibition of poly(Glu4-Tyr)peptide phosphorylation by recombinant VEGFR2 at 10 uM ATP and in presence of 100 uM glutathione
[2] = biological target: T1, Vascular endothelial growth factor receptor 2; experiment: Inhibition of poly(Glu4-Tyr)peptide phosphorylation by recombinant VEGFR2 at 10 uM ATP
[3] = biological target: T1, Vascular endothelial growth factor receptor 2; experiment: Inhibition of poly(Glu4-Tyr)peptide phosphorylation by recombinant VEGFR2 at 10 uM ATP and in presence of 5% mouse plasma

T1 sequence (P35968 whole entry): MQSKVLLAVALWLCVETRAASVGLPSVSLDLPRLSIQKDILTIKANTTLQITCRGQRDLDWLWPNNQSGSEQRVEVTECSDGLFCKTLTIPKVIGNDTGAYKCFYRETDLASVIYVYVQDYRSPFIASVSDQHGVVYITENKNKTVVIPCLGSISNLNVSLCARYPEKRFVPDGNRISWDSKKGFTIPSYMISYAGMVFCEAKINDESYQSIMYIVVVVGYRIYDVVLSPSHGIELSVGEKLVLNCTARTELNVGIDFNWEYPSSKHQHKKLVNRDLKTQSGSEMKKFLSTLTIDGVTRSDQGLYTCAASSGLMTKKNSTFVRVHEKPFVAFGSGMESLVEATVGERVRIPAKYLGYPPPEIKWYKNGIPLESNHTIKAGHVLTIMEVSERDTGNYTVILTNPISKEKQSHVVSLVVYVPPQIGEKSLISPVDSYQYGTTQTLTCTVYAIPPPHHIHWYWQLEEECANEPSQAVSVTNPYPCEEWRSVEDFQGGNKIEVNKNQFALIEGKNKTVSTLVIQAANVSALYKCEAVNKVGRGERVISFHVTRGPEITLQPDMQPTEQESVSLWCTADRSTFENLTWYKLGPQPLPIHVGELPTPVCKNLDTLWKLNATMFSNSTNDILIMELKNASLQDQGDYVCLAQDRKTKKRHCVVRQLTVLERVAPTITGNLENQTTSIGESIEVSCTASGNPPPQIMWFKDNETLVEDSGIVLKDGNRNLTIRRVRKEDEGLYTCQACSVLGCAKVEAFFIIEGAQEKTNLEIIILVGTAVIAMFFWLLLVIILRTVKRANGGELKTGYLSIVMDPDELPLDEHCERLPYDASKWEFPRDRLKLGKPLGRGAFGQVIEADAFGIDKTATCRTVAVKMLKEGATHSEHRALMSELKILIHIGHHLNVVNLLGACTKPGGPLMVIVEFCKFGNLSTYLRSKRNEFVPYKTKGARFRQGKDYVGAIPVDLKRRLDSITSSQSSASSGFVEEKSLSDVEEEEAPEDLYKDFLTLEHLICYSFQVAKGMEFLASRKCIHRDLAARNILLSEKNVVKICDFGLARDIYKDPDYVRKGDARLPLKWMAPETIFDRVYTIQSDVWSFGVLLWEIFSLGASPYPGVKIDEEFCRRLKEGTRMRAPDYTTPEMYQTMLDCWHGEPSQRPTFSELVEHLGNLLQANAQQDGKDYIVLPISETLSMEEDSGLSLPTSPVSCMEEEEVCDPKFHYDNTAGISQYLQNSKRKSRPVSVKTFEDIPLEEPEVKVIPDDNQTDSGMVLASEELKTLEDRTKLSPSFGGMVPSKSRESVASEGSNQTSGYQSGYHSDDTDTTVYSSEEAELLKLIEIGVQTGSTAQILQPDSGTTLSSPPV

IC50 [1]: > 1000 nM
IC50 [2]: > 1000 nM
IC50 [3]: > 1000 nM
Compound: COCCOc1cc2ncnc(N=C3C(=O)C(OC)=CC(=O)C3Sc3ccccn3)c2cc1OC (stereo not drawn) [5-methoxy-3-{[6-methoxy-7-(2-methoxyethoxy)quinazolin-4-yl]amino}-2-(pyridin-2-ylthio)benzo-1,4-quinone]
